Test results from BigSolDB 2.1.

O=P1(Oc2ccccc2)OCC2(CO1)COP(=O)(Oc1ccccc1)OC2 (configuration not stated)
Settings | solubility (mole fraction)
in 1,4-dioxane, 293.26 K | 0.00132
in 1,4-dioxane, 298.45 K | 0.00152
in 1,4-dioxane, 303.26 K | 0.00181
in 1,4-dioxane, 308.67 K | 0.00214
in 1,4-dioxane, 313.24 K | 0.00253
in 1,4-dioxane, 318.36 K | 0.00294
in 1,4-dioxane, 323.35 K | 0.00335
in 1,4-dioxane, 328.23 K | 0.00383
in 1,4-dioxane, 333.36 K | 0.00438
in 1,4-dioxane, 338.25 K | 0.00499
in 2-butanone, 293.15 K | 0.00399
in 2-butanone, 298.16 K | 0.00446
in 2-butanone, 303.17 K | 0.00506
in 2-butanone, 308.18 K | 0.00575
in 2-butanone, 313.16 K | 0.00638
in 2-butanone, 318.19 K | 0.00733
in 2-butanone, 323.15 K | 0.00809
in 2-ethoxyethanol, 293.24 K | 0.00325
in 2-ethoxyethanol, 298.24 K | 0.00392
in 2-ethoxyethanol, 303.16 K | 0.00455
in 2-ethoxyethanol, 308.17 K | 0.00543
in 2-ethoxyethanol, 313.23 K | 0.00637
in 2-ethoxyethanol, 318.16 K | 0.00756
in 2-ethoxyethanol, 323.18 K | 0.00897
in 2-ethoxyethanol, 328.15 K | 0.0104
in 2-ethoxyethanol, 333.16 K | 0.0122
in 2-ethoxyethanol, 338.17 K | 0.014
in 2-ethoxyethanol, 343.16 K | 0.0161
in 2-ethoxyethanol, 348.17 K | 0.0185
in 2-ethoxyethanol, 353.16 K | 0.0215
in 2-ethoxyethanol, 358.16 K | 0.0244
in 2-ethoxyethanol, 363.17 K | 0.0277
in 2-ethoxyethanol, 368.16 K | 0.0319
in THF, 293.53 K | 0.00524
in THF, 298.16 K | 0.00615
in THF, 303.49 K | 0.00727
in THF, 308.25 K | 0.00845
in THF, 313.35 K | 0.00996
in THF, 318.31 K | 0.0115
in THF, 323.35 K | 0.0133
in THF, 328.46 K | 0.0153
in acetone, 293.17 K | 0.00237
in acetone, 298.16 K | 0.00275
in acetone, 303.26 K | 0.00322
in acetone, 308.57 K | 0.00371
in acetone, 313.24 K | 0.00421
in acetone, 318.07 K | 0.00479
in acetone, 323.25 K | 0.00542
in acetone, 328.36 K | 0.00622
in acetonitrile, 293.31 K | 0.00156
in acetonitrile, 298.17 K | 0.00187
in acetonitrile, 303.26 K | 0.00223
in acetonitrile, 308.57 K | 0.00273
in acetonitrile, 313.35 K | 0.00318
in acetonitrile, 318.24 K | 0.00375
in acetonitrile, 323.36 K | 0.00438
in acetonitrile, 328.27 K | 0.00522
in acetonitrile, 333.35 K | 0.00614
in acetonitrile, 338.56 K | 0.00738
in acetonitrile, 343.44 K | 0.00841
in benzene, 293.17 K | 0.00119
in benzene, 298.16 K | 0.00121
in benzene, 304.76 K | 0.00124
in benzene, 308.37 K | 0.00127
in benzene, 313.55 K | 0.00129
in benzene, 318.26 K | 0.00133
in benzene, 323.24 K | 0.00136
in benzene, 328.43 K | 0.00138
in benzene, 333.46 K | 0.00141
in benzene, 338.34 K | 0.00143
in benzene, 343.26 K | 0.00145
in benzene, 348.35 K | 0.00147
in chloroform, 293.25 K | 0.00224
in chloroform, 298.17 K | 0.00319
in chloroform, 303.25 K | 0.00436
in chloroform, 308.56 K | 0.00611
in chloroform, 313.25 K | 0.00806
in chloroform, 318.25 K | 0.0106
in chloroform, 323.04 K | 0.0139
in chloroform, 328.35 K | 0.0188
in chloroform, 333.13 K | 0.0234
in dichloromethane, 293.16 K | 0.00103
in dichloromethane, 299.22 K | 0.00127
in dichloromethane, 303.86 K | 0.00146
in dichloromethane, 307.6 K | 0.00167
in diethyl ether, 291.95 K | 0.00179
in diethyl ether, 295.37 K | 0.00204
in diethyl ether, 299.26 K | 0.00234
in diethyl ether, 303.55 K | 0.00275
in ethanol, 298.16 K | 0.00136
in ethanol, 303.15 K | 0.00157
in ethanol, 308.16 K | 0.00187
in ethanol, 313.14 K | 0.00218
in ethanol, 318.16 K | 0.00246
in ethanol, 323.16 K | 0.00288
in ethanol, 328.17 K | 0.00329
in ethanol, 333.16 K | 0.00383
in ethanol, 338.16 K | 0.00426
in ethanol, 343.15 K | 0.00485
in ethyl acetate, 293.25 K | 0.00107
in ethyl acetate, 298.46 K | 0.00132
in ethyl acetate, 303.27 K | 0.00158
in ethyl acetate, 308.66 K | 0.00193
in ethyl acetate, 313.27 K | 0.0023
in ethyl acetate, 318.35 K | 0.00281
in ethyl acetate, 323.35 K | 0.00334
in ethyl acetate, 328.26 K | 0.00392
in ethyl acetate, 333.37 K | 0.00459
in ethyl acetate, 338.26 K | 0.00539
in methanol, 293.24 K | 0.00271
in methanol, 298.24 K | 0.00298
in methanol, 303.16 K | 0.00329
in methanol, 308.17 K | 0.00365
in methanol, 313.23 K | 0.00401
in methanol, 318.16 K | 0.00443
in methanol, 323.15 K | 0.00483
in pyridine, 293.43 K | 0.00813
in pyridine, 298.35 K | 0.00885
in pyridine, 303.51 K | 0.00964
in pyridine, 308.35 K | 0.0104
in pyridine, 313.35 K | 0.0114
in pyridine, 318.31 K | 0.0123
in pyridine, 323.35 K | 0.0132
in pyridine, 328.45 K | 0.0141
in toluene, 298.17 K | 0.00115
in toluene, 303.25 K | 0.00143
in toluene, 308.56 K | 0.00185
in toluene, 313.34 K | 0.00229
in toluene, 318.26 K | 0.00285
in toluene, 323.37 K | 0.00352
in toluene, 328.25 K | 0.00424
in toluene, 333.34 K | 0.00536
in toluene, 338.56 K | 0.00646
in toluene, 343.45 K | 0.00781
in water, 293.18 K | 0.00014
in water, 298.77 K | 0.0002
in water, 308.37 K | 0.0003
in water, 313.56 K | 0.00037
in water, 318.25 K | 0.0005
in water, 323.24 K | 0.00064
in water, 328.43 K | 0.00086
in water, 333.45 K | 0.00116
in water, 338.36 K | 0.00148
in water, 343.26 K | 0.00188
in water, 348.35 K | 0.00241
in water, 353.24 K | 0.00295
in water, 358.25 K | 0.00371
in water, 363.36 K | 0.00477
in water, 368.25 K | 0.00591

O=P1(O)OCC2(CO1)COP(=O)(O)OC2 (configuration not stated)
Settings | solubility (mole fraction)
in 1,4-dioxane, 293.16 K | 0.00025
in 1,4-dioxane, 298.17 K | 0.00028
in 1,4-dioxane, 303.16 K | 0.00031
in 1,4-dioxane, 308.17 K | 0.00035
in 1,4-dioxane, 313.16 K | 0.0004
in 1,4-dioxane, 318.18 K | 0.00045
in 1,4-dioxane, 323.16 K | 0.0005
in 1,4-dioxane, 328.16 K | 0.00055
in 1,4-dioxane, 333.17 K | 0.0006
in 1,4-dioxane, 338.15 K | 0.00066
in 2-butanone, 293.16 K | 0.0006
in 2-butanone, 298.17 K | 0.0007
in 2-butanone, 303.16 K | 0.0008
in 2-butanone, 308.17 K | 0.001
in 2-butanone, 313.16 K | 0.0011
in 2-butanone, 318.18 K | 0.0013
in 2-butanone, 323.16 K | 0.0015
in 2-butanone, 328.16 K | 0.0016
in 2-butanone, 333.17 K | 0.0018
in acetic acid, 293.16 K | 0.00017
in acetic acid, 298.17 K | 0.00022
in acetic acid, 303.16 K | 0.00026
in acetic acid, 308.17 K | 0.00032
in acetic acid, 313.16 K | 0.0004
in acetic acid, 318.18 K | 0.00048
in acetic acid, 323.16 K | 0.00057
in acetic acid, 328.16 K | 0.00067
in acetic acid, 333.17 K | 0.00078
in acetic acid, 338.15 K | 0.00092
in acetone, 295.75 K | 0.004
in acetone, 297.55 K | 0.0041
in acetone, 299.85 K | 0.0043
in acetone, 301.45 K | 0.0044
in acetone, 303.15 K | 0.0045
in acetone, 305.35 K | 0.0047
in acetone, 307.95 K | 0.0049
in acetone, 309.15 K | 0.005
in acetone, 313.35 K | 0.0053
in acetone, 317.15 K | 0.0057
in acetone, 319.15 K | 0.0058
in acetonitrile, 309.35 K | 0.0006
in acetonitrile, 311.25 K | 0.0007
in acetonitrile, 313.25 K | 0.0009
in acetonitrile, 315.45 K | 0.001
in acetonitrile, 317.35 K | 0.0012
in acetonitrile, 319.55 K | 0.0015
in acetonitrile, 321.55 K | 0.0017
in acetonitrile, 323.25 K | 0.002
in acetonitrile, 325.75 K | 0.0025
in acetonitrile, 327.45 K | 0.0028
in acetonitrile, 329.45 K | 0.0032
in acetonitrile, 331.55 K | 0.0038
in benzene, 293.16 K | 0.00031
in benzene, 298.17 K | 0.00038
in benzene, 303.16 K | 0.00047
in benzene, 308.17 K | 0.00059
in benzene, 313.16 K | 0.0007
in benzene, 318.18 K | 0.00088
in benzene, 323.16 K | 0.00103
in benzene, 328.16 K | 0.00123
in benzene, 333.17 K | 0.00146
in benzene, 338.15 K | 0.00176
in chloroform, 293.16 K | 0.00046
in chloroform, 298.17 K | 0.00054
in chloroform, 303.16 K | 0.00067
in chloroform, 308.17 K | 0.00081
in chloroform, 313.16 K | 0.00094
in chloroform, 318.18 K | 0.00114
in chloroform, 323.16 K | 0.00137
in chloroform, 328.16 K | 0.00163
in chloroform, 333.17 K | 0.00192
in chloroform, 338.15 K | 0.00222
in cyclohexane, 293.16 K | 0.00016
in cyclohexane, 298.17 K | 0.00019
in cyclohexane, 303.16 K | 0.00022
in cyclohexane, 308.17 K | 0.00025
in cyclohexane, 313.16 K | 0.00028
in cyclohexane, 318.18 K | 0.00032
in cyclohexane, 323.16 K | 0.00037
in cyclohexane, 328.16 K | 0.00041
in cyclohexane, 333.15 K | 0.00046
in cyclohexane, 338.15 K | 0.00052
in dichloromethane, 291.16 K | 0.00027
in dichloromethane, 295.18 K | 0.00032
in dichloromethane, 299.16 K | 0.00037
in dichloromethane, 303.19 K | 0.00045
in dichloromethane, 305.2 K | 0.00048
in dichloromethane, 309.15 K | 0.00056
in diethyl ether, 291.16 K | 0.00053
in diethyl ether, 295.18 K | 0.00073
in diethyl ether, 299.16 K | 0.00096
in diethyl ether, 303.19 K | 0.00124
in diethyl ether, 305.2 K | 0.0014
in ethyl acetate, 293.16 K | 0.00078
in ethyl acetate, 298.17 K | 0.00092
in ethyl acetate, 303.16 K | 0.00109
in ethyl acetate, 308.17 K | 0.00129
in ethyl acetate, 313.16 K | 0.00152
in ethyl acetate, 318.18 K | 0.00177
in ethyl acetate, 323.16 K | 0.00204
in ethyl acetate, 328.16 K | 0.00229
in ethyl acetate, 333.17 K | 0.00271
in ethyl acetate, 338.15 K | 0.00315
in toluene, 293.16 K | 0.00046
in toluene, 298.17 K | 0.00059
in toluene, 303.16 K | 0.00071
in toluene, 308.17 K | 0.00086
in toluene, 313.16 K | 0.00104
in toluene, 318.18 K | 0.00122
in toluene, 323.16 K | 0.00146
in toluene, 328.16 K | 0.00176
in toluene, 333.17 K | 0.00209
in toluene, 338.15 K | 0.00248
